Reference: the supplement of paper PMC10307832

Columns and labels:
Test in all cases: relative viability (nuclei count vs DMSO), 5 days (fraction); higher = more cells survive
[1] = compound: C1=CC=C(C(=C1)C2=CC=C(C=C2)C3=CSC4=C3C(=C(C(=O)N4)C#N)O)O + Nc1nc2[nH]cc(CCc3ccc(C(=O)N[C@@H](CCC(=O)O)C(=O)O)cc3)c2c(=O)[nH]1 [Pemetrexed] (partner 0.2 µM)
Method in brief: (§1)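 One day after seeding in 1536-well plates, lung cancer cell lines were dosed by pin tool. Dosing was either single-drug or a fixed anchor-drug dose plus five library-drug doses (not always all listed) in √10 steps. After 5 days, nuclei were stained in one fix-and-stain step and counted on 4× images, and relative viability is the nuclei count of treated wells over that of vehicle wells, given as the median of duplicate plates.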

[2] = compound: C1=CC=C(C(=C1)C2=CC=C(C=C2)C3=CSC4=C3C(=C(C(=O)N4)C#N)O)O + O=C(CCCCCCC(=O)Nc1ccccc1)NO [Vorinostat] (partner 1 µM)
Method in brief: as §1

[3] = compound: O=C(CCCCCCNC(=O)c1cnc(N(c2ccccc2)c2ccccc2)nc1)NO [Ricolinostat] + Cc1cc(Nc2cc(N3CCN(C)CC3)nc(Sc3ccc(NC(=O)C4CC4)cc3)n2)n[nH]1 [Tozasertib] (partner 0.1 µM)
Method in brief: as §1

[4] = compound: O=C(CCCCCCNC(=O)c1cnc(N(c2ccccc2)c2ccccc2)nc1)NO [Ricolinostat] + O=C(c1cc(Cc2n[nH]c(=O)c3ccccc23)ccc1F)N1CCN(C(=O)C2CC2)CC1 [Olaparib] (partner 8 µM)
Method in brief: as §1

Cell Line	relative viability ([1]; first compound 0.253 µM)	relative viability ([1]; first compound 0.8 µM)	relative viability ([1]; first compound 2.53 µM)	relative viability ([1]; first compound 8 µM)	relative viability ([2]; first compound 0.253 µM)	relative viability ([2]; first compound 0.8 µM)	relative viability ([2]; first compound 2.53 µM)	relative viability ([2]; first compound 8 µM)	relative viability ([3]; first compound 0.08 µM)	relative viability ([3]; first compound 0.253 µM)	relative viability ([3]; first compound 0.8 µM)	relative viability ([3]; first compound 2.53 µM)	relative viability ([4]; first compound 0.08 µM)	relative viability ([4]; first compound 0.253 µM)	relative viability ([4]; first compound 0.8 µM)	relative viability ([4]; first compound 2.53 µM)	relative viability ([1]; first compound 0.08 µM)	relative viability ([2]; first compound 0.08 µM)
NCI-H647	0.18	0.16	0.17	0.189	0.947	0.58	0.637	0.461	0.315	0.195	0.27	0.206	0.446	0.521	0.465	0.261		
NCI-H650	1.05	0.972	0.979	0.862	0.438	0.422	0.426	0.309	0.671	0.675	0.673	0.467	0.376	0.34	0.278	0.22	0.944	0.412
NCI-H661	1	0.933	0.937	0.85	0.836	0.772	0.84	0.6	0.354	0.364	0.288	0.281	0.654	0.75	0.706	0.558	0.834	0.803
NCI-H838	0.291	0.253	0.233	0.243	0.691	0.775	0.704	0.744	0.255	0.275	0.238	0.212	0.802	0.788	0.787	0.404	0.209	0.749
NCI-H1355	1.12	1.13	1.04	1.11	0.658	0.626	0.578	0.592	0.6	0.558	0.483	0.477	0.647	0.723	0.707	0.688	1.01	0.627
NCI-H1395	0.841	0.776	0.812	0.894	0.683	0.551	0.618	0.606		0.835	0.741	0.671		0.44	0.479	0.433		
NCI-H1437	0.371	0.324	0.323	0.323	0.934	0.889	0.874	0.603	0.341	0.4	0.367	0.315	0.628	0.595	0.598	0.409	0.301	0.788
NCI-H1648	0.682	0.732	0.813	0.747	0.319	0.876	0.593	0.391	0.273	0.536	0.366	0.237		0.817	0.407	0.4		
NCI-H1650	0.359	0.461	0.33	0.32	0.546	0.498	0.531	0.435	0.428	0.431	0.265	0.256	0.767	0.632	0.823	0.579	0.339	0.462
NCI-H1651	0.62	0.513	0.617	0.549	0.523	0.583	0.535	0.51	0.658	0.744	0.633	0.436	0.194	0.174	0.184	0.164	0.386	0.509
NCI-H1666	0.833	0.894	0.865	0.761	1.04	0.993	1.03	0.984	0.544	0.591	0.489	0.358	0.708	0.709	0.695	0.829	0.796	0.905
NCI-H1734	0.403	0.462	0.401	0.448	0.767	0.751	0.803	0.765	0.241	0.29	0.231	0.292	0.61	0.642	0.601	0.324	0.396	0.747
NCI-H1755	0.469	0.545	0.439	0.714	0.913	0.735	0.761	0.687	0.581	0.565	0.525	0.53	0.826	0.809	0.814	0.739	0.463	0.822
NCI-H1793	0.862	0.713	0.687	0.802	1.05	0.497	0.634	0.681		0.256	0.27	0.244	0.692	0.825	0.903	0.902	0.69	0.58
NCI-H1915	0.443	0.486	0.481	0.506	0.468	0.449	0.552	0.46	0.438	0.455	0.385	0.377	0.255	0.237	0.248	0.201	0.437	0.455
NCI-H1944	0.697	0.571	0.646	0.632	0.637	0.571	0.479	0.478	0.245	0.246	0.221	0.23	0.404	0.369	0.308	0.296	0.609	0.682
NCI-H1975	0.288	0.302	0.307	0.295	0.78	0.736	0.81	0.677	0.83	0.708	0.604	0.59	0.85	0.768	0.713	0.643	0.312	0.665
NCI-H1993	0.939	0.551	0.54	0.497	1.02	0.979	0.845	0.644		0.644	0.561	0.536	0.883	0.875	1.02	0.892	0.585	0.57
NCI-H2009	1.04	1.02	1.1	1.08	0.715	0.859	0.716	0.638	0.745	0.686	0.68	0.607	0.67	0.663	0.623	0.457	0.97	0.728

Cell Line	relative viability ([1]; first compound 0.253 µM)	relative viability ([1]; first compound 0.8 µM)	relative viability ([1]; first compound 2.53 µM)	relative viability ([1]; first compound 8 µM)	relative viability ([2]; first compound 0.253 µM)	relative viability ([2]; first compound 0.8 µM)	relative viability ([2]; first compound 2.53 µM)	relative viability ([2]; first compound 8 µM)	relative viability ([3]; first compound 0.08 µM)	relative viability ([3]; first compound 0.253 µM)	relative viability ([3]; first compound 0.8 µM)	relative viability ([3]; first compound 2.53 µM)	relative viability ([4]; first compound 0.08 µM)	relative viability ([4]; first compound 0.253 µM)	relative viability ([4]; first compound 0.8 µM)	relative viability ([4]; first compound 2.53 µM)	relative viability ([1]; first compound 0.08 µM)	relative viability ([2]; first compound 0.08 µM)
NCI-H2023	0.296	0.368	0.208	0.323	0.793	0.56	0.725	0.453		0.373	0.244	0.188	0.485	0.447	0.407	0.239	0.188	0.677
NCI-H2085	1.01	0.801	0.886	0.818	0.893	0.764	0.784	0.714	0.688	0.731	0.613	0.523		0.734	0.764	0.791	0.838	0.726
NCI-H2087	0.671	0.675	0.67	0.747	0.672	0.685	0.764	0.918		0.253	0.164	0.168	0.502	0.588	0.671	0.357	0.608	0.336
NCI-H2126	0.823	0.694	0.664	0.513	0.787	0.803	0.832	0.732		0.823	0.739	0.495	0.789	0.889	0.93	0.851	0.837	0.846
NCI-H2170	0.268	0.285	0.254	0.261	0.819	0.921	0.778	0.616	0.758	0.61	0.622	0.723	0.569	0.507	0.625	0.539	0.279	0.9
NCI-H2228	0.454	0.351	0.332	0.367	0.557	0.648	0.524	0.36	0.37	0.235	0.237	0.141	0.647	0.548	0.476	0.45	0.371	0.555
NCI-H2342	0.938	0.713	0.755	0.712	0.83	0.871	0.71	0.586	0.496	0.461	0.401	0.426	0.444	0.535	0.421	0.46	0.769	0.801
NCI-H2347	0.429	0.403	0.444	0.406	0.59	0.55	0.539	0.568	0.419	0.47	0.513	0.425	0.51	0.604	0.612	0.586	0.367	0.507
NCI-H2405		1.07	0.975	0.948		0.956	0.955	0.999	0.693	0.752	0.677	0.731	0.705	0.858	0.814	0.937	1.01	0.983
NCI-H3122	0.201	0.22	0.213	0.19	0.992	1.14	1.09	0.89		0.361	0.382	0.295	0.571	0.618	0.54	0.55	0.19	1
PC-3 [JPC-3]	1.19	1.06	0.942	0.98	0.909	0.758	0.658	0.662		0.84	0.851	0.771	0.865	1.06	1.07	0.971	1.08	0.809
PC-14	0.156	0.153	0.125	0.146	0.863	0.563	0.71	0.567	0.61	0.553	0.527	0.418	0.265	0.257	0.267	0.199	0.151	0.64
RERF-LC-KJ	0.521	0.485	0.441	0.552	0.763	0.751	0.714	0.544	0.531	0.406	0.324	0.265	0.897	0.894	0.773	0.582	0.468	0.639
SK-LU-1	0.943	0.918	1.03	0.806	0.727	0.655	0.761	0.671	0.321	0.273	0.285	0.194	0.371	0.478	0.362	0.382	0.933	0.737
SK-MES-1	1.03	1.02	0.987	1.02	1.17	0.911	1.06	0.923	0.833	0.795	0.877	0.628	0.713	0.712	0.691	0.681	1.02	1.1
SW 900	0.487	0.453	0.464	0.47	0.633	0.412	0.406	0.358	0.596	0.509	0.393	0.459	0.845	0.836	0.853	0.621		
SW 1573	0.982	0.788	0.851	0.728	0.723	0.716	0.76	0.59	0.277	0.193	0.165	0.242	0.436	0.508	0.534	0.404	0.61	0.701
UMC-11	0.577	0.878	0.83	0.628	0.352	0.409	0.381	0.412	0.221	0.192	0.159	0.165	0.345	0.339	0.323	0.198		
